Where a SMILES comes first, the peptide text is derived from it. [ ]: non-standard residue; d: D form. ξ: configuration not given here. Ile(3ξ) = CCC(C)[C@H](N)C(=O)O

For this test, the target named is T1, Pituitary adenylate cyclase-activating polypeptide (Rattus norvegicus, UniProt P13589).
T1 sequence (P13589 whole entry): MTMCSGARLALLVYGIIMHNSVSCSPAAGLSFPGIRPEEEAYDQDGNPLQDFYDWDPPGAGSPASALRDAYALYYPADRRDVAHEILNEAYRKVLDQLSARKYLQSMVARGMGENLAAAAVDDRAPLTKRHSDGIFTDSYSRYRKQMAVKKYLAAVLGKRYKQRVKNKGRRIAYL
`CCC(C)[C@H](NC(=O)CNC(=O)[C@H](CC(=O)O)NC(=O)[C@@H](N)CO)C(=O)N[C@@H](Cc1ccccc1)C(=O)N[C@H](C(=O)N[C@@H](CC(=O)O)C(=O)N[C@@H](CO)C(=O)N[C@@H](Cc1ccc(O)cc1)C(=O)N[C@@H](CO)C(=O)N[C@@H](CCCN=C(N)N)C(=O)N[C@@H](Cc1ccc(O)cc1)C(=O)N[C@@H](CCCN=C(N)N)C(=O)N[C@@H](CCCCN)C(=O)N[C@@H](CCC(N)=O)C(=O)N[C@@H](CCSC)C(=O)N[C@@H](C)C(=O)N[C@H](C(=O)N[C@@H](CCCCN)C(=O)N[C@@H](CCCCN)C(=O)N[C@@H](Cc1ccc(O)cc1)C(=O)N[C@@H](CC(C)C)C(=O)N[C@@H](C)C(=O)N[C@@H](C)C(=O)N[C@H](C(=O)N[C@@H](CC(C)C)C(=O)NCC(=O)N[C@@H](CCCCN)C(=O)N[C@@H](CCCN=C(N)N)C(=O)N[C@@H](Cc1ccc(O)cc1)C(=O)N[C@@H](CCCCN)C(=O)N[C@@H](CCC(N)=O)C(=O)N[C@@H](CCCN=C(N)N)C(=O)N[C@H](C(=O)N[C@@H](CCCCN)C(=O)N[C@@H](CC(N)=O)C(=O)N[C@@H](CCCCN)C(N)=O)C(C)C)C(C)C)C(C)C)[C@@H](C)O` (stereo partly drawn) [PACAP(2-38)] (H-SDG[Ile(3ξ)]FTDSYSRYRKQMAVKKYLAAVLGKRYKQRVKNK-NH2): the affinity, expressed as Ki, was 3 nM.

For the molecule `CCC(C)[C@H](NC(=O)CNC(=O)[C@@H](N)CC(=O)O)C(=O)N[C@@H](Cc1ccccc1)C(=O)N[C@H](C(=O)N[C@@H](CC(=O)O)C(=O)N[C@@H](CO)C(=O)N[C@@H](Cc1ccc(O)cc1)C(=O)N[C@@H](CO)C(=O)N[C@@H](CCCN=C(N)N)C(=O)N[C@@H](Cc1ccc(O)cc1)C(=O)N[C@@H](CCCN=C(N)N)C(=O)N[C@@H](CCCCN)C(=O)N[C@@H](CCC(N)=O)C(=O)N[C@@H](CCSC)C(=O)N[C@@H](C)C(=O)N[C@H](C(=O)N[C@@H](CCCCN)C(=O)N[C@@H](CCCCN)C(=O)N[C@@H](Cc1ccc(O)cc1)C(=O)N[C@@H](CC(C)C)C(=O)N[C@@H](C)C(=O)N[C@@H](C)C(=O)N[C@H](C(=O)N[C@@H](CC(C)C)C(N)=O)C(C)C)C(C)C)[C@@H](C)O` (stereo partly drawn) [PACAP(3-27)] (H-DG[Ile(3ξ)]FTDSYSRYRKQMAVKKYLAAVL-NH2), the affinity corresponds to a Ki of 3000 nM. As to `CCC(C)[C@H](NC(=O)CNC(=O)[C@@H](N)CC(=O)O)C(=O)N[C@@H](Cc1ccccc1)C(=O)N[C@H](C(=O)N[C@@H](CC(=O)O)C(=O)N[C@@H](CO)C(=O)N[C@@H](Cc1ccc(O)cc1)C(=O)N[C@@H](CO)C(=O)N[C@@H](CCCN=C(N)N)C(=O)N[C@@H](Cc1ccc(O)cc1)C(=O)N[C@@H](CCCN=C(N)N)C(=O)N[C@@H](CCCCN)C(=O)N[C@@H](CCC(N)=O)C(=O)N[C@@H](CCSC)C(=O)N[C@@H](C)C(=O)N[C@H](C(=O)N[C@@H](CCCCN)C(=O)N[C@@H](CCCCN)C(=O)N[C@@H](Cc1ccc(O)cc1)C(=O)N[C@@H](CC(C)C)C(=O)N[C@@H](C)C(=O)N[C@@H](C)C(=O)N[C@H](C(=O)N[C@@H](CC(C)C)C(=O)NCC(=O)N[C@@H](CCCCN)C(=O)N[C@@H](CCCN=C(N)N)C(=O)N[C@@H](Cc1ccc(O)cc1)C(=O)N[C@@H](CCCCN)C(=O)N[C@@H](CCC(N)=O)C(=O)N[C@@H](CCCN=C(N)N)C(=O)N[C@H](C(=O)N[C@@H](CCCCN)C(=O)N[C@@H](CC(N)=O)C(=O)N[C@@H](CCCCN)C(N)=O)C(C)C)C(C)C)C(C)C)[C@@H](C)O` (stereo partly drawn) [PACAP(3-38)] (H-DG[Ile(3ξ)]FTDSYSRYRKQMAVKKYLAAVLGKRYKQRVKNK-NH2), the affinity corresponds to a Ki of 10 nM. This Ki lies about 300-fold lower than the previous one.

Source of the values: BindingDB's records for doi:10.1016/s0028-3908(05)80009-7 (Universit&Eacute, 1994).
